{
  "source": "ChEMBL document CHEMBL5038635",
  "about": "“Discovery of Salidroside-Derivated Glycoside Analogues as Novel Angiogenesis Agents to Treat Diabetic Hind Limb Ischemia” (J Med Chem, 2022)",
  "key": {"C2C12 [1]": {"tested_on": "C2C12", "assay": "Induction proliferation of mouse C2C12 cells with silenced HIF-1alpha at 30 uM pretreated with compound in hyperglycemia condition for 12 hr followed by hypoxia condition for 24 hrs by EdU-incorporation assay", "assay_type": "functional, cell-based", "conditions": "time 36.0 hrs"}, "C2C12 [2]": {"tested_on": "C2C12", "assay": "Angiogenic activity in mouse C2C12 cells assessed as accumulation HIF-1alpha protein expression at 300 uM by Western blot analysis", "assay_type": "functional, cell-based"}, "C2C12 [3]": {"tested_on": "C2C12", "assay": "Apoptotic rate in mouse C2C12 cells with silenced HIF-1alpha assessed as viable cells at 30 uM by AnnexinV-FITC/PI staining based FACS analysis (reference value: 86.05 %)", "assay_type": "functional", "conditions": "read-out: Activity"}, "C2C12 [4]": {"tested_on": "C2C12", "assay": "Increase in PDGF-BB protein expression level in HIF-1 alpha silenced mouse C2C12 cells at 30 uM by Western blot analysis", "assay_type": "functional, cell-based"}, "Mus musculus [5]": {"tested_on": "Mus musculus", "assay": "Antidiabetic activity in diabetic HLI C57BL/6 mouse model assessed as suppression of apoptotic rate in skeletal muscle cell in gastrocnemius muscle at 15 to 30 mg/kg, IM administered by TUNEL assay", "assay_type": "functional, organism-based", "conditions": "dose 15-30 mg/kg"}, "C2C12 [6]": {"tested_on": "C2C12", "assay": "Upregulation of FGF18 protein expression in mouse C2C12 cells at 30 uM by Western blot analysis", "assay_type": "functional, cell-based"}, "MOVAS-1 [7]": {"tested_on": "MOVAS-1", "assay": "Induction proliferation of mouse MOVAS-1 cells assessed as increase in number of EdU-positive cells using conditioned medium of mouse C2C12 cells with silenced HIF-1alpha treated at 30 uM under hyperglycemic condition for 12 hrs followed by hypoxia for 24 hrs in presence of VEGFR inhibitor Ki8751 by EdU-incorporation assay", "assay_type": "functional, cell-based", "conditions": "time 36.0 hrs"}, "C2C12 [8]": {"tested_on": "C2C12", "assay": "Apoptotic rate in mouse C2C12 cells with silenced HIF-1alpha assessed as necrotic cells at 30 uM by AnnexinV-FITC/PI staining based FACS analysis (reference value: 0.31 %)", "assay_type": "functional"}, "C2C12 [9]": {"tested_on": "C2C12", "assay": "Induction proliferation of mouse C2C12 cells assessed as increase in number of EdU-positive cells at 30 uM under normoglycemic condition by EdU-incorporation assay", "assay_type": "functional, cell-based"}, "C2C12 [10]": {"tested_on": "C2C12", "assay": "Upregulation of PDGF-B protein expression in mouse C2C12 cells at 30 uM by Western blot analysis", "assay_type": "functional, cell-based"}, "C2C12 [11]": {"tested_on": "C2C12", "assay": "Apoptotic rate in hyperglycemia-treated mouse C2C12 cells assessed as viable cells at 30 uM by AnnexinV-FITC/PI staining based flow cytometric analysis (reference value: 81.90 %)", "assay_type": "functional", "conditions": "read-out: Activity"}, "Mus musculus [12]": {"tested_on": "Mus musculus", "assay": "Angiogenic activity in diabetic HLI C57BL/6 mouse model assessed as increase in number of alpha-SMA-positive cells at 30 mg/kg, im administered for 21 days followed by surgery by immunofluorescence analysis", "assay_type": "functional, organism-based", "conditions": "time 21.0 day"}, "[13]": {"assay": "Dissociation constant, pKa of compound by UV-visible spectrometric method", "assay_type": "physicochemical"}, "MOVAS-1 [14]": {"tested_on": "MOVAS-1", "assay": "Induction proliferation of mouse MOVAS-1 assessed as increase in number of EdU-positive cells using conditioned medium of mouse C2C12 cells with silenced HIF-1alpha treated at 30 uM under hyperglycemic condition for 12 hrs followed by hypoxia for 24 hrs by EdU-incorporation assay", "assay_type": "functional, cell-based", "conditions": "time 36.0 hrs"}, "C2C12 [15]": {"tested_on": "C2C12", "assay": "Effect on PHD1 mRNA expression in mouse C2C12 cells at 30 uM by qRT-PCR analysis", "assay_type": "functional, cell-based"}, "C2C12 [16]": {"tested_on": "C2C12", "assay": "Angiogenic activity in mouse C2C12 cells assessed as reversal of hyperglycemia-induced reduction in total cell number at 300 uM measured after 24 to 36 hrs by EdU-incorporation assay", "assay_type": "functional, cell-based", "conditions": "time 24-36 hrs"}, "C2C12 [17]": {"tested_on": "C2C12", "assay": "Effect on PHD2 mRNA expression in mouse C2C12 cells at 30 uM by qRT-PCR analysis", "assay_type": "functional, cell-based"}, "C2C12 [18]": {"tested_on": "C2C12", "assay": "Angiogenic activity in mouse C2C12 cells assessed as accumulation ANG1 protein expression at 300 uM by Western blot analysis", "assay_type": "functional, cell-based"}, "MOVAS-1 [19]": {"tested_on": "MOVAS-1", "assay": "Angiogenesis activity in mouse MOVAS-1 cells assessed as suppression of cell migration using conditioned medium of mouse C2C12 cells treated at 30 uM under hyperglycemic condition for 12 hrs followed by hypoxia for 24 hrs by crystal violet dye based transwell assay", "assay_type": "functional", "conditions": "time 36.0 hrs"}, "Mus musculus [20]": {"tested_on": "Mus musculus", "assay": "Antidiabetic activity in diabetic HLI C57BL/6 mouse model assessed as effect on blood glucose level at 30 mg/kg administered intramuscularly measured after 3 days", "assay_type": "functional, organism-based", "conditions": "time 3.0 day"}, "HUVEC": {"tested_on": "HUVEC", "assay": "Angiogenesis activity in human HUVEC cells assessed as suppression of cell migration using conditioned medium of mouse C2C12 cells treated at 30 uM under hyperglycemic condition for 12 hrs followed by hypoxia for 24 hrs by crystal violet dye based transwell assay", "assay_type": "functional", "conditions": "time 36.0 hrs"}, "C2C12 [21]": {"tested_on": "C2C12", "assay": "Angiogenic activity in mouse C2C12 cells assessed as reversal of hyperglycemia-induced reduction in total cell number measured after 12 to 36 hrs", "assay_type": "functional, cell-based"}, "C2C12 [22]": {"tested_on": "C2C12", "assay": "Angiogenic activity in mouse C2C12 cells assessed as reversal of hyperglycemia-induced reduction in total cell number at 7.5 uM measured after 24 hrs by EdU-incorporation assay", "assay_type": "functional, cell-based"}, "C2C12 [23]": {"tested_on": "C2C12", "assay": "Upregulation of CXCL17 protein expression in mouse C2C12 cells at 30 uM by Western blot analysis", "assay_type": "functional, cell-based"}, "Mus musculus [24]": {"tested_on": "Mus musculus", "assay": "Angiogenic activity in diabetic HLI C57BL/6 mouse model assessed as increase in number of PECAM-1/alpha-SMA double-positive cells at 30 mg/kg, im administered for 21 days followed by surgery by immunofluorescence analysis", "assay_type": "functional, organism-based", "conditions": "time 21.0 day"}, "[25]": {"assay": "Toxicity in diabetic HLI C57BL/6 mouse model assessed as spleen pathology at 30 mg/kg, IM administered by HE staining based assay", "assay_type": "organism-based", "conditions": "in vivo"}, "C2C12 [26]": {"tested_on": "C2C12", "assay": "Induction proliferation of mouse C2C12 cells assessed as suppression of apoptotic rate at 30 uM under normoglycemic condition by Annexin V/PI staining based Flowcytometry method", "assay_type": "functional, cell-based"}, "Mus musculus [27]": {"tested_on": "Mus musculus", "assay": "Antidiabetic activity in diabetic HLI C57BL/6 mouse model assessed as increase in blood perfusion recovery at 30 mg/kg administered intramuscularly measured after 14 days", "assay_type": "functional", "conditions": "time 14 day"}, "C2C12 [28]": {"tested_on": "C2C12", "assay": "Induction of proliferation of hyperglycemia-induced mouse C2C12 cell death assessed as increase in number of EdU-positive cells at 7.5 to 300 uM pretreated with compound under hyperglycemia condition for 12 hr followed by hypoxia for 24 hrs", "assay_type": "functional, cell-based", "conditions": "dose 7.5-300 µM, time 36.0 hrs"}, "C2C12 [29]": {"tested_on": "C2C12", "assay": "Upregulation of FGF1protein expression in mouse C2C12 cells at 30 uM by Western blot analysis", "assay_type": "functional, cell-based"}, "MOVAS-1 [30]": {"tested_on": "MOVAS-1", "assay": "Angiogenic activity in mouse MOVAS-1 cells assessed as suppression of F-actin polymerization at 30 uM using conditioned medium of mouse C2C12 cells treated at 30 uM under hyperglycemic condition for 12 hrs followed by hypoxia for 12 hrs by phalloidin staining based confocal microscopy", "assay_type": "functional, cell-based", "conditions": "time 24.0 hrs"}, "C2C12 [31]": {"tested_on": "C2C12", "assay": "Down regulation of PHD3 mRNA expression in mouse C2C12 cells at 30 uM by qRT-PCR analysis", "assay_type": "functional, cell-based"}, "C2C12 [32]": {"tested_on": "C2C12", "assay": "Apoptotic rate in hyperglycemia-treated mouse C2C12 cells assessed as viable cells at 15 uM by AnnexinV-FITC/PI staining based flow cytometric analysis (reference value: 81.90 %)", "assay_type": "functional", "conditions": "read-out: Activity"}, "C2C12 [33]": {"tested_on": "C2C12", "assay": "Upregulation of TNFRSF12A protein expression in mouse C2C12 cells at 30 uM by Western blot analysis", "assay_type": "functional, cell-based"}, "[34]": {"biological_target": "Hypoxia-inducible factor 1-alpha (Mus musculus) (UniProt Q61221)", "sequence (Q61221 whole entry)": "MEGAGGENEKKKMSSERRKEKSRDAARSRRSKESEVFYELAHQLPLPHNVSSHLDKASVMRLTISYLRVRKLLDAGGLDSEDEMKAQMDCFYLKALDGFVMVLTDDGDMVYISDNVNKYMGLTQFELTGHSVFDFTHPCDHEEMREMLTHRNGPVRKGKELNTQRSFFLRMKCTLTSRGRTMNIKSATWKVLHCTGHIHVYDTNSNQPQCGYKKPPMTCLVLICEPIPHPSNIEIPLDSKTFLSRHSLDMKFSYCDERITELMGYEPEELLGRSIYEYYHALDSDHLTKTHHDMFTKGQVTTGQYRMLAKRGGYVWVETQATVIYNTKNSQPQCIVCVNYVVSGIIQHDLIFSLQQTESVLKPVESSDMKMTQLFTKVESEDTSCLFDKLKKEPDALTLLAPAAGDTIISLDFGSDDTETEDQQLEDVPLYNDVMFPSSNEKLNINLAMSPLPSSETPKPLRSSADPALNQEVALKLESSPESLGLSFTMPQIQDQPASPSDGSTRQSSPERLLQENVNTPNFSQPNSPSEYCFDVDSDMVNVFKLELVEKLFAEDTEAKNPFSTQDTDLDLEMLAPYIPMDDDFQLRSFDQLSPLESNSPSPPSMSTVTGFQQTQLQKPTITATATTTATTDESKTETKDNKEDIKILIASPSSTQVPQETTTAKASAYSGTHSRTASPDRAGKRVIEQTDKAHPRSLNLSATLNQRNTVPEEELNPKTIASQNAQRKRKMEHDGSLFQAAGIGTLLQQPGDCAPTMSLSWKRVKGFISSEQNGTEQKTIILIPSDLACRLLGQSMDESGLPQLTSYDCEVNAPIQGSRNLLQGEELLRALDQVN", "assay": "Inhibition of HIF-1alpha in mouse C2C12 cells transfected with PDGF-B driven firefly luciferase gene assessed as transcriptional activity pretreated with compound for 12 hr followed by hypoxic condition for 24 hrs by dual luciferase reporter gene assay", "assay_type": "cell-based", "conditions": "time 36.0 hrs"}, "C2C12 [35]": {"tested_on": "C2C12", "assay": "Angiogenic activity in mouse C2C12 cells assessed as accumulation VEGF-A protein expression at 300 uM by Western blot analysis", "assay_type": "functional, cell-based"}},
  "note": "Activity calls are given as the source filed them. The rule behind the calls is not given here.",
  "data": [
    {"smiles": "COc1ccc(Cc2cccc(O[C@@H]3O[C@H](CO)[C@@H](O)[C@H](O)[C@H]3O)c2)cc1", "values": [
      {"measurement": "Activity", "setting": "C2C12 [1]", "value": "inactive"},
      {"measurement": "inhibition", "setting": "C2C12 [2]", "value": "Active"},
      {"measurement": "viability at 30 µM", "setting": "C2C12 [3]", "value": 82, "unit": "%"},
      {"measurement": "Activity", "setting": "C2C12 [4]", "value": "inactive"},
      {"measurement": "Activity", "setting": "Mus musculus [5]", "value": "Active"},
      {"measurement": "Activity", "setting": "C2C12 [6]", "value": "Active"},
      {"measurement": "Activity", "setting": "MOVAS-1 [7]", "value": "inactive"},
      {"measurement": "Activity", "setting": "C2C12 [8]", "value": 0.16, "unit": "%"},
      {"measurement": "Activity", "setting": "C2C12 [9]", "value": "Active"},
      {"measurement": "Activity", "setting": "C2C12 [10]", "value": "Active"},
      {"measurement": "viability at 30 µM", "setting": "C2C12 [11]", "value": 93.6, "unit": "%"},
      {"measurement": "Activity", "setting": "Mus musculus [12]", "value": "Active"},
      {"measurement": "pKa", "setting": "[13]", "value": "> 14"},
      {"measurement": "Activity", "setting": "MOVAS-1 [14]", "value": "Active"},
      {"measurement": "Activity", "setting": "C2C12 [15]", "value": "inactive"},
      {"measurement": "Activity", "setting": "C2C12 [16]", "value": "inactive"},
      {"measurement": "Activity", "setting": "C2C12 [17]", "value": "inactive"},
      {"measurement": "inhibition", "setting": "C2C12 [18]", "value": "Active"},
      {"measurement": "Activity", "setting": "MOVAS-1 [19]", "value": "Active"},
      {"measurement": "Activity", "setting": "Mus musculus [20]", "value": "Active"},
      {"measurement": "Activity", "setting": "HUVEC", "value": "Active"},
      {"measurement": "EC50", "setting": "C2C12 [21]", "value": 12.7, "unit": "µM"},
      {"measurement": "Activity", "setting": "C2C12 [22]", "value": "Active"},
      {"measurement": "Activity", "setting": "C2C12 [23]", "value": "Active"},
      {"measurement": "Activity", "setting": "Mus musculus [24]", "value": "Active"},
      {"measurement": "Activity", "setting": "[25]", "value": "Non-Toxic"},
      {"measurement": "Activity", "setting": "C2C12 [26]", "value": "Active"},
      {"measurement": "Activity", "setting": "Mus musculus [27]", "value": 70, "unit": "%"},
      {"measurement": "Activity", "setting": "C2C12 [28]", "value": "Active"},
      {"measurement": "Activity", "setting": "C2C12 [29]", "value": "Active"},
      {"measurement": "Activity", "setting": "MOVAS-1 [30]", "value": "Active"},
      {"measurement": "Activity", "setting": "C2C12 [31]", "value": "Active"},
      {"measurement": "viability at 15 µM", "setting": "C2C12 [32]", "value": 88.9, "unit": "%"},
      {"measurement": "Activity", "setting": "C2C12 [33]", "value": "Active"},
      {"measurement": "inhibition", "setting": "[34]", "value": "Active"},
      {"measurement": "inhibition", "setting": "C2C12 [35]", "value": "Active"}
    ]}
  ]
}
